Source: patent US20180191012A1, “AQUEOUS […]-BASED REDOX FLOW BATTERIES” (UCHICAGO ARGONNE, LLC, priority 2016, published 2018)

Conditions: 10 mM compound in 0.5 M aqueous NaCl; well-defined, reversible redox waves

SMILES: c1cc[n+]2c(c1)-c1cccc[n+]1CC2 [A, N,N′-(ethan-1,2-diyl)-2,2′-bipyridinedium dibromide]
- redox potential versus Ag/AgCl: −0.60 V
